Measured values: patent US12357699B2, “B-cell immunotherapy in cancer treatment” (AKAMARA THERAPEUTICS, INC., priority 2018, dated 2025)

Experiments:
[1] = system: 4T1 cells; assay: 4T1 tumor growth in B cell-deficient mice (Jh−/−); assay type: in vivo; conditions: 4T1 tumors
Description: (§1) 4T1 cells were subcutaneously implanted in the mice strains mentioned and when tumors reached an average volume of 100 mm^3, they were divided into two groups. One group was kept as control and the other treated with IO-125 and tumor volume in all the animals were recorded.

[2] = system: 4T1 cells; assay: 4T1 tumor growth in mice lacking functional B cells and T cells (SCID); assay type: in vivo; conditions: 4T1 tumors
Description: as §1

[3] = system: B cell differentiation and TLR activation markers; assay: Relative mRNA expression in naive splenic B cells cultured with conditioned media (TCM) from treated 4T1 cells; assay type: cell-based, mice; conditions: splenic B cells 48 hours in TCM from 4T1 cells treated 6 hours plus 42 hours
Description: 4T1 cells were seeded in cell culture dishes in IMDM media containing 10% FBS. The cells were treated with blank supramolecule (Vehicle) and IO-125 when they reached 60% confluence. Following a transient treatment of 6 hours, the media was removed and supplemented with fresh culture media and cells were incubated for additional 42 hours. Following treatment, the conditioned media from 4T1 cells (TCM) was collected for each treatment and filtered through 0.2 micron PES filters to obtain TCM free of cell debris. The harvested TCMs were used immediately for conditioning of B cells, isolated from naïve mice splenocytes using the EasySep Stem Cell B cell isolation kit as per manufacturers protocol. The B cells were incubated with conditioned media and harvested after 48 hours of incubation. RNA was isolated from the B cells and used for relative mRNA expression level evaluation of genes involved in B cell differentiation and TLR activation.

[4] = system: IGKC; assay: Immune biomarker expression (molecular immunophenotyping, immunohistochemistry of FFPE sections) in LLC tumors; assay type: in vivo, C57/BL6 mice
Description: (§2) In contrast, 45% of the animals underwent complete tumor regression when the two drugs were combined. These observations illustrate that combinations of IO-125 with immune checkpoint inhibitor(s) augment tumor regression as compared to monotherapies.
Subsequently, tumors were harvested and a portion fixed in formalin.

[5] = system: genes involved in B cell differentiation and TLR activation; assay: Relative mRNA expression in splenic B cells isolated from treated mice; assay type: in vivo, Balb/c mice; conditions: tumor bearing treated mice (Group 1)
Description: Splenic B cells were isolated from Group 1 and Group 2 mice, described in Example 3. Spleen was harvested from mice (n=3) and minced into small pieces in RPMI-1640 basal media. The pieces were placed on top of a 40 mesh membrane and crushed with the back of a syringe and the single cell suspension was collected onto a 50 mL tube. The single cell suspension was washed twice with PBS to remove debris by centrifuging at 2000 rpm. Splenocytes were counted using haemocytometer and 100 million splenocytes were resuspended in 1 mL of Isolation buffer (2% FBS, […] in DPBS) and transferred to a 5 ml Polystyrene tube. The B cells were isolated from splenocytes using the EasySep Stem Cell B cell isolation kit as per manufacturers protocol. One part of the isolated B cells was used for RNA isolation, followed by relative mRNA expression levels of genes involved in B cell differentiation and TLR activation were evaluated; while the second part was used for immunodetection of specific proteins, following the manufacturer's protocol.

[6] = system: 4T1 cells; assay: Tumor rechallenge (immune memory study), re-implantation of 4T1 cells; assay type: in vivo, Balb/c mice
Description: 4T1 cells were subcutaneously implanted in Balb/c mice to generate tumors. When tumors reached an average volume of 100 mm^3, they were treated with IO-125 (Group 1). Two groups of Balb/c mice (non-tumor bearing) were either treated with IO-125 or saline (designated Group 2 and 3 respectively; FIG. 3A). Immune memory cells are poised to rapidly expand and induce effector functions upon recurrence, while existing in a functionally quiescent state. To verify this hypothesis, we examined immune memory in IO-125 treated tumors.

[7] = system: IGKC; assay: Semi-quantitative PCR of immune activating and suppressive genes in 4T1 tumors; assay type: in vivo, Balb/c mice; conditions: 4T1 tumors harvested after one cycle, 20 mgPt/kg
Description: (§3) The efficacy of IO-125 was examined in the murine triple negative breast cancer (TNBC) tumor model (4T1). 4T1 cells were subcutaneously implanted in Balb/c mice to generate tumors and treated with IO-125 or saline (control), when tumors reached an average volume of 100 mm^3. The dose administered for IO-125 was 20 mgPt/kg, with a regimen of b5d. Following one cycle of treatment, tumors were harvested and a portion of the tumor from control and IO-125 treated group was used for total RNA isolation and subsequent evaluation of immune activating and immune suppressive genes (Denkert et al., Clin Oncol. 2015; 33(9):983-91) by semi-quantitative PCR. IO-125 treatment was continued for an additional cycle, with recording of tumor volume and examination of tumors for regression.

[8] = system: 4T1 cells; assay: Murine triple negative breast cancer (TNBC) tumor model (4T1 s.c. in Balb/c mice); assay type: in vivo; conditions: 4T1 tumor-bearing Balb/c mice, 20 mgPt/kg, two cycles
Description: as §3

[9] = system: LLC cells; assay: Combination of PD1 immune checkpoint inhibitor and IO-125 in immunocompetent murine NSCLC tumor model (LLC cells s.c. in C57/BL6 mice); assay type: in vivo; conditions: syngeneic lung cancer (LLC) bearing animals, two cycles
Description: The combination of a PD1 immune checkpoint inhibitor and IO-125 was evaluated in an immunocompetent murine NSCLS tumor model. The murine NSCLC tumor model was generated by subcutaneously implanting LLC cells in C57/BL6 mice. Treatment with saline (control), IO-125, immune check point inhibitor (anti-PD1 antibody, Biolegend) or combinatorial therapy (IO-125 and anti-PD1 antibody) was initiated when average tumor volume in the animals reached 100 mm^3, through i.v. administration of compounds. A schematic representation of the treatment regimen is depicted in FIG. 1A.
as §2

CC(C)CCCC(C)C1CCC2C3CC=C4CC(OCCN(CC(=O)[O-])CC(=O)[O][Pt+]5[NH]C6CCCCC6[NH]5)CCC4(C)C3CCC12C (stereo not drawn) [IO-125]
tumor ablation in Jh−/− mice (FIG. 4C) [1]: Tumor ablation did not occur
tumor ablation in SCID mice (FIG. 4D) [2]: Tumor ablation did not occur
B cell differentiation markers and TLR activation markers, relative mRNA (FIG. 4B) [3]: substantially increased
IGKC levels (FIG. 2D) ([4]; LLC tumors of treated animals, relative expression of immune biomarkers): increase in IGKC levels
immunodetection of B220 and IGKC in tumor sections (FIG. 2E) ([4]; treated versus control tumors): significantly increased expression of IGKC
expression of TLRs and CD80 in splenic B cells [5]: elevated expression of TLRs and CD80
IGKC mRNA levels in splenic B cells (FIG. 5B) ([5]; normalized to Group 2): significant increase in IGKC mRNA levels
tumor growth after re-implantation of cancer cells, Group 1 ([6]; animals that had previously undergone tumor regression with treatment): no tumor growth was observed
tumor growth after implantation of 4T1 cells, Group 2 ([6]; non-tumor bearing Balb/c mice pre-treated, compared with saline treated mice (Group 3)): led to the growth of tumors
IGKC mRNA levels in tumors (FIG. 2B) [7]: significant increase in IGKC mRNA levels
tumor growth curve (FIG. 2A) [8]: complete regression of tumors
tumor growth curves (FIG. 2C) [9]: significant tumor growth inhibition but no regression
